# Laboratory results: PubChem BioAssay (NCI)
#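 Five concentrations, 48 hours, 96-well plates. The concentration for 50% growth inhibition is given as GI50. TGI marks complete inhibition of growth.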
# Legend:
# Assay in all cases: NCI-60 cell line screen, 48 h
# SF-295 CNS = tested on: SF-295 CNS
# MCF7 breast = tested on: MCF7 breast
# HT29 colon = tested on: HT29 colon
# SN12C renal = tested on: SN12C renal
# HCC-2998 colon = tested on: HCC-2998 colon
# SF-268 CNS = tested on: SF-268 CNS
# K-562 leukemia = tested on: K-562 leukemia
# SW-620 colon = tested on: SW-620 colon
# NCI-H460 lung = tested on: NCI-H460 lung
# OVCAR-3 ovarian = tested on: OVCAR-3 ovarian
# SNB-75 CNS = tested on: SNB-75 CNS
# OVCAR-8 ovarian = tested on: OVCAR-8 ovarian
# A549 NSCLC = tested on: A549 NSCLC
# NCI-H522 lung = tested on: NCI-H522 lung
# A498 renal = tested on: A498 renal
# RPMI-8226 leukemia = tested on: RPMI-8226 leukemia
# SR leukemia = tested on: SR leukemia
# U251 CNS = tested on: U251 CNS
# BT-549 breast = tested on: BT-549 breast
# OVCAR-4 ovarian = tested on: OVCAR-4 ovarian
# CCRF-CEM leukemia = tested on: CCRF-CEM leukemia
# NCI-H226 lung = tested on: NCI-H226 lung
# HS 578T breast = tested on: HS 578T breast
# MDA-MB-231 breast = tested on: MDA-MB-231 breast
# MDA-MB-435 = tested on: MDA-MB-435
# EKVX NSCLC = tested on: EKVX NSCLC
# NCI-H23 lung = tested on: NCI-H23 lung
# SNB-19 CNS = tested on: SNB-19 CNS
# TK-10 renal = tested on: TK-10 renal
# IGROV1 ovarian = tested on: IGROV1 ovarian
# SK-MEL-2 melanoma = tested on: SK-MEL-2 melanoma
# CAKI-1 renal = tested on: CAKI-1 renal
# UACC-62 melanoma = tested on: UACC-62 melanoma
# SK-MEL-5 melanoma = tested on: SK-MEL-5 melanoma
# HCT-15 colon = tested on: HCT-15 colon
# RXF 393 renal = tested on: RXF 393 renal
# MALME-3M melanoma = tested on: MALME-3M melanoma
# UACC-257 melanoma = tested on: UACC-257 melanoma
# PC-3 prostate = tested on: PC-3 prostate
# SF-539 CNS = tested on: SF-539 CNS
# M14 melanoma = tested on: M14 melanoma
# SK-OV-3 ovarian = tested on: SK-OV-3 ovarian
# COLO 205 colon = tested on: COLO 205 colon
# HCT-116 colon = tested on: HCT-116 colon
# NCI/ADR-RES ovarian = tested on: NCI/ADR-RES ovarian
# KM12 colon = tested on: KM12 colon
# ACHN renal = tested on: ACHN renal
# 786-0 renal = tested on: 786-0 renal
# OVCAR-5 ovarian = tested on: OVCAR-5 ovarian
# HOP-92 NSCLC = tested on: HOP-92 NSCLC
# SK-MEL-28 melanoma = tested on: SK-MEL-28 melanoma
# LOX IMVI melanoma = tested on: LOX IMVI melanoma
# T-47D breast = tested on: T-47D breast
# DU-145 prostate = tested on: DU-145 prostate
# HL-60(TB) leukemia = tested on: HL-60(TB) leukemia
# MOLT-4 leukemia = tested on: MOLT-4 leukemia
# HOP-62 NSCLC = tested on: HOP-62 NSCLC
# UO-31 renal = tested on: UO-31 renal
smiles,measurement,setting,value
COc1ccc(C(O)c2cc3c(N)c(C(=O)Nc4ccc(Cl)cc4)sc3nc2C)cc1 (stereo unspecified),GI50,SF-295 CNS,2.14 µM
same,TGI,SF-295 CNS,11.6 µM
same,GI50,MCF7 breast,0.707 µM
same,TGI,MCF7 breast,17.2 µM
same,GI50,HT29 colon,2.49 µM
same,TGI,HT29 colon,8.73 µM
same,GI50,SN12C renal,5.53 µM
same,TGI,SN12C renal,24.9 µM
same,GI50,HCC-2998 colon,3.04 µM
same,TGI,HCC-2998 colon,20.8 µM
same,GI50,SF-268 CNS,3.96 µM
same,TGI,SF-268 CNS,19.6 µM
same,GI50,K-562 leukemia,0.694 µM
same,TGI,K-562 leukemia,> 100 µM
same,GI50,SW-620 colon,2.62 µM
same,TGI,SW-620 colon,37.6 µM
same,GI50,NCI-H460 lung,2.3 µM
same,TGI,NCI-H460 lung,6.25 µM
same,GI50,OVCAR-3 ovarian,2 µM
same,TGI,OVCAR-3 ovarian,4.78 µM
same,GI50,SNB-75 CNS,1.88 µM
same,TGI,SNB-75 CNS,7.25 µM
same,GI50,OVCAR-8 ovarian,4.02 µM
same,TGI,OVCAR-8 ovarian,26.7 µM
same,GI50,A549 NSCLC,3.53 µM
same,TGI,A549 NSCLC,14.9 µM
same,GI50,NCI-H522 lung,4.05 µM
same,TGI,NCI-H522 lung,38.1 µM
same,GI50,A498 renal,3 µM
same,TGI,A498 renal,12.4 µM
same,GI50,RPMI-8226 leukemia,2.22 µM
same,TGI,RPMI-8226 leukemia,9.32 µM
same,GI50,SR leukemia,0.44 µM
same,TGI,SR leukemia,> 100 µM
same,GI50,U251 CNS,2.28 µM
same,TGI,U251 CNS,15.8 µM
same,GI50,BT-549 breast,3.42 µM
same,TGI,BT-549 breast,21.6 µM
same,GI50,OVCAR-4 ovarian,2.42 µM
same,TGI,OVCAR-4 ovarian,7.47 µM
same,GI50,CCRF-CEM leukemia,2.47 µM
same,TGI,CCRF-CEM leukemia,> 100 µM
same,GI50,NCI-H226 lung,2.85 µM
same,TGI,NCI-H226 lung,9.47 µM
same,GI50,HS 578T breast,1.82 µM
same,TGI,HS 578T breast,5.3 µM
same,GI50,MDA-MB-231 breast,4.9 µM
same,TGI,MDA-MB-231 breast,28.8 µM
same,GI50,MDA-MB-435,0.317 µM
same,TGI,MDA-MB-435,1.17 µM
same,GI50,EKVX NSCLC,3.88 µM
same,TGI,EKVX NSCLC,30.7 µM
same,GI50,NCI-H23 lung,5.07 µM
same,TGI,NCI-H23 lung,52.5 µM
same,GI50,SNB-19 CNS,4.16 µM
same,TGI,SNB-19 CNS,44.6 µM
same,GI50,TK-10 renal,7.85 µM
same,TGI,TK-10 renal,43.9 µM
same,GI50,IGROV1 ovarian,3.22 µM
same,TGI,IGROV1 ovarian,28.6 µM
same,GI50,SK-MEL-2 melanoma,8.6 µM
same,TGI,SK-MEL-2 melanoma,69.6 µM
same,GI50,CAKI-1 renal,2.79 µM
same,TGI,CAKI-1 renal,15.6 µM
same,GI50,UACC-62 melanoma,1.86 µM
same,TGI,UACC-62 melanoma,32.8 µM
same,GI50,SK-MEL-5 melanoma,2.74 µM
same,TGI,SK-MEL-5 melanoma,10.2 µM
same,GI50,HCT-15 colon,0.719 µM
same,TGI,HCT-15 colon,12.9 µM
same,GI50,RXF 393 renal,2.25 µM
same,TGI,RXF 393 renal,11.6 µM
same,GI50,MALME-3M melanoma,2.04 µM
same,TGI,MALME-3M melanoma,18.9 µM
same,GI50,UACC-257 melanoma,4.99 µM
same,TGI,UACC-257 melanoma,57.5 µM
same,GI50,PC-3 prostate,3.27 µM
same,TGI,PC-3 prostate,22.2 µM
same,GI50,SF-539 CNS,2.4 µM
same,TGI,SF-539 CNS,8.08 µM
same,GI50,M14 melanoma,1.74 µM
same,TGI,M14 melanoma,29.9 µM
same,GI50,SK-OV-3 ovarian,3.21 µM
same,TGI,SK-OV-3 ovarian,15.5 µM
same,GI50,COLO 205 colon,3.99 µM
same,TGI,COLO 205 colon,23 µM
same,GI50,HCT-116 colon,2.01 µM
same,TGI,HCT-116 colon,14.3 µM
same,GI50,NCI/ADR-RES ovarian,3.86 µM
same,TGI,NCI/ADR-RES ovarian,28 µM
same,GI50,KM12 colon,1.64 µM
same,TGI,KM12 colon,7.1 µM
same,GI50,ACHN renal,3.53 µM
same,TGI,ACHN renal,15.7 µM
same,GI50,786-0 renal,8.2 µM
same,TGI,786-0 renal,31.8 µM
same,GI50,OVCAR-5 ovarian,3.97 µM
same,TGI,OVCAR-5 ovarian,25.5 µM
same,GI50,HOP-92 NSCLC,2.37 µM
same,TGI,HOP-92 NSCLC,18.3 µM
same,GI50,SK-MEL-28 melanoma,6.49 µM
same,TGI,SK-MEL-28 melanoma,57.7 µM
same,GI50,LOX IMVI melanoma,2.08 µM
same,TGI,LOX IMVI melanoma,13.2 µM
same,GI50,T-47D breast,3.29 µM
same,TGI,T-47D breast,50.5 µM
same,GI50,DU-145 prostate,2.71 µM
same,TGI,DU-145 prostate,7.66 µM
same,GI50,HL-60(TB) leukemia,1.91 µM
same,TGI,HL-60(TB) leukemia,9.63 µM
same,GI50,MOLT-4 leukemia,3.09 µM
same,TGI,MOLT-4 leukemia,> 100 µM
same,GI50,HOP-62 NSCLC,3.24 µM
same,TGI,HOP-62 NSCLC,19.2 µM
same,GI50,UO-31 renal,3.8 µM
same,TGI,UO-31 renal,23 µM
